Target: mouse recombinant isozyme PKCα (Mus musculus, UniProt P20444)
Experiment: [3H]PDBu binding assay (displacement of bound [20-3H]phorbol 12,13-dibutyrate)
Conditions: displacement of [3H]PDBu from PKCα in the presence of calcium and phosphatidylserine; read-out: inhibitory dissociation constant (Ki)
Experimental: The inhibitory dissociation constant (Ki) of each bryologue ligand was determined by the ability of the ligand to displace bound [20-^3H]phorbol 12,13-dibutyrate (PDBu) from mouse recombinant isozyme PKC α in the presence of calcium and phosphatidylserine, using a polyethylene glycol precipitation assay developed in our laboratory as described elsewhere. Briefly, the assay mixture (250 μL) contained 50 mM Tris-HCl (pH 7.4 at room temperature), 100 μg/mL phosphatidylserine, 0.1 mM Ca^2+, 4 mg/mL bovine immunoglobulin G and 0.003% Tx-100, 2 nM [^3H]PDBu and various concentrations of the competing ligand. […] The radioactivity was determined by scintillation counting, using Cytoscint (ICN, Costa Mesa, Calif.). Specific binding was calculated as the difference between total and nonspecific PDBu binding. The Inhibitory dissociation constants (Ki) were calculated using the method previously described by Blumberg and Lewin.
The inhibitory dissociation constant (Ki) of MERLE 28 was determined by the ability of the ligand to displace bound [20-^3H]phorbol 12,13-dibutyrate (PDBu) from mouse recombinant isozyme PKCα in the presence of calcium and phosphatidylserine, using a polyethylene glycol precipitation assay previously described by Blumberg and Lewin. […] The radioactivity was determined by scintillation counting, using Cytoscint (ICN, Costa Mesa, Calif.). […]

Work on C=C1C[C@H]2C[C@H]3C[C@@H](OC(C)=O)C[C@@H](C[C@@H](O)CC(=O)O[C@@H]([C@@H](C)O)C[C@@H]4C/C(=C\C(=O)OC)[C@H](OC(=O)CCCCCCC)[C@@](O)(O4)C(C)(C)/C=C/[C@@H](C1)O2)O3 [MERLE 27] yielded a Ki of 3 ± 0.6 nM.
